Data: patent publication US20260347322A1, “BETA ADRENERGIC AGONIST AND METHODS OF USING THE SAME” (CuraSen Therapeutics, Inc., priority 2019, published 2026)

Columns and labels:
Format in all cases: cell-based
[1] = molecular target: T1, B1-AR (β1 adrenergic receptor) (Homo sapiens, UniProt P08588); assay: cAMP homogeneous time-resolved fluorescence (HTRF) assay, β1
T1 construct: expressed in transfected cells
Experimental: (§1) CAMP homogeneous time-resolved fluorescence (HTRF): experimental methods. Compound efficacy is determined using the CAMP Gs dynamic HTRF assay (Cisbio, catalog #62AM4PEC) largely following the manufacturer's instructions, also detailed below.
(§2) Standard serial dilution curves are 10-point, 5-fold dilutions starting from a highest concentration of 10 μM. […] Assay plates are centrifuged at 500×g for 10 seconds. Compounds and IBMX are prepared at 2× final dose to compensate for addition of cells. […]
(§3) Subsequently, 5 μL Anti-cAMP-Eu Donor, diluted 1:21 in detection and lysis buffer 2, was added to cells. […] Plates are centrifuged again at 500×g for 10 seconds, and HTRF was measured using a Tecan Spark plate reader at 50 flashes per well. […] Potency estimates (EC50 and pEC50) are derived from the four-parameter nonlinear regression of the concentration-effect curve and an estimate of relative efficacy is determined by comparing the magnitude of the test compound HTRF signal window (min-max dose) with the signal window of the full agonist control, isoproterenol.

[2] = molecular target: T2, B2-AR (β2 adrenergic receptor) (Homo sapiens, UniProt P07550); assay: cAMP homogeneous time-resolved fluorescence (HTRF) assay, β2
T2 construct: expressed in transfected cells
Experimental: as §1, §2, §3

[3] = tested on: Endogenous beta-adrenergic receptor, 1321N1 cells; assay: cAMP homogeneous time-resolved fluorescence (HTRF) assay, endogenous receptor; settings: 30 min, 37 °C
Experimental: as §1
Compound Preparation: Candidate beta-adrenergic compounds, dissolved to 10 mM in DMSO, are diluted in 1× stimulation buffer 1 (Cisbio Part #64Sβ1FDD) containing 1 mM 3-Isobutyl-1-methylxanthene (IBMX; Cayman Chemical Company, catalog #13347). Serial dilutions are made in a 96 well V-bottom polypropylene compound microplate (Corning, catalog #3363) in stimulation buffer containing 1 mM IBMX, to 2× of the final desired concentration. Standard serial dilution curves are 10-point, 5-fold dilutions starting from a highest concentration of 10 μM. Controls present on every assay plate are 0.1% DMSO (vehicle control), 1 μM isoproterenol (full beta-adrenergic agonist control) and 15 μM xamoterol (partial beta-adrenergic agonist control). 5 μL from the 2× compound plate is stamped into a white 384 round well small volume HiBase assay plate (Greiner Bio-One; catalog #784075) to provide 4 technical replicates per concentration, per compound. Assay plates are centrifuged at 500×g for 10 seconds. Compounds and IBMX are prepared at 2× final dose to compensate for addition of cells.
Cell Preparation: 1× stimulation buffer, washing PBS (Dulbecco's phosphate-buffered saline, —Mg—Ca; Caisson Labs, catalog #PBL01), assay PBS (Dulbecco's phosphate-buffered saline, +Mg, +Ca; Caisson Labs, catalog #PBL02) and Versene (0.02% EDTA disodium salt solution in PBS without calcium or magnesium; Caisson Labs, catalog #EDL01) are pre-warmed to 37 °C Cells expressing beta-adrenergic receptor were washed in washing PBS to remove growth medium and then released from the surface by incubating with Versene for 5-10 minutes at 37 °C. Cells are harvested using assay PBS, counted manually by hemocytometer or by an automated cell counter, pelleted by centrifugation (200×g, 5 minutes) and resuspended in 37 °C. 1× stimulation buffer to a final density of 1.5×10^6 cells/mL. […]
HTRF Reagent Addition, Reading and Data Analysis: After 30 minutes of cell stimulation with test compound, the assay plates are centrifuged at 500×g for 10 seconds, and incubation was stopped with the addition of 5 μL cAMP-D2 acceptor, diluted 1:21 in detection and lysis buffer 2 (Cisbio 62CL2FDF) was added to all cells. […] Plates are centrifuged again at 500×g for 10 seconds, and HTRF was measured using a Tecan Spark plate reader at 50 flashes per well. HTRF ratios (665 nm/620 nm×10,000) are determined and plotted in GraphPad Prism to generate a concentration-effect curve. […]

T1 sequence (P08588 whole entry): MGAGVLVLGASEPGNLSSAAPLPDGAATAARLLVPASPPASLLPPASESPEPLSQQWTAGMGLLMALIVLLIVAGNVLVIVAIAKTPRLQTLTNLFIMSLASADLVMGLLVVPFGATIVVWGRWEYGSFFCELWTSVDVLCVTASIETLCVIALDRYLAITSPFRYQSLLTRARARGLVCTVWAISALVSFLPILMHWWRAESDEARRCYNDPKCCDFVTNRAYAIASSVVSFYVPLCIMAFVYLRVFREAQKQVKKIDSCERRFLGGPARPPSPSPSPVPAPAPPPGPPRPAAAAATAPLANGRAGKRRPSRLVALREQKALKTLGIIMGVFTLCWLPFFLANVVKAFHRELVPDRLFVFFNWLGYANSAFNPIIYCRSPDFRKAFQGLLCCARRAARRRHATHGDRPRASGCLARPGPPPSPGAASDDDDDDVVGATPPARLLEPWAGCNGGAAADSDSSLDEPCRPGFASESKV
T2 sequence (P07550 whole entry): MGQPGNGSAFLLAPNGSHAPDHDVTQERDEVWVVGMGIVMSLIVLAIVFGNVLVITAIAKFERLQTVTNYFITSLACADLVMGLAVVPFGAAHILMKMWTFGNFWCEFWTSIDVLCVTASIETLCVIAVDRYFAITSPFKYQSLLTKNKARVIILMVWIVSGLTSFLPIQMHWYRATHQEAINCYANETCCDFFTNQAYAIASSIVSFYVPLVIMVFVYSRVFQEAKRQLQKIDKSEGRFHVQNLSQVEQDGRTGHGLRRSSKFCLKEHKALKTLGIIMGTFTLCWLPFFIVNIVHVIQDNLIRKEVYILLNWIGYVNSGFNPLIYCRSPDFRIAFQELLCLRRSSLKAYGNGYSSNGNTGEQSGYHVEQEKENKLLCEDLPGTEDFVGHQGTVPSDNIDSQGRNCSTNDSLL

Row | Compound | EC50 [1] | EC50 [2] | Average pEC50 [Receptor subtype: Endogenous; Cell type: 1321N1] [3]
1 | CC(C)(C)NC[C@H](O)c1cncc2[nH]ncc12 [Compound 04-153] | > 1000 nM | 10 to 100 nM | 
2 | CC(C)(C)NC[C@@H](O)c1cccc(N)n1 [Compound 02-6] |  |  | C (C =< 7-6)
3 | CC(C)(C)NC[C@H](O)c1cnc(N)c(Cl)c1 [Compound 02-1] |  |  | C (C =< 7-6)
4 | CC(C)(C)NC[C@@H](O)c1cccc(O)n1 [Compound 02-8] |  |  | D (D < 6)
5 | CC(C)(C)NC[C@H](O)c1cccc(O)n1 [Compound 02-7] |  |  | D (D < 6)
